Results: publication PMC12455078, “Synthesis, pharmacokinetic studies, and metabolite analysis of meridianin C in rats using a validated ultra high performance liquid chromatography-tandem mass spectrometry method” (Frontiers in Pharmacology, 2025)

What was measured:
[1] = Stability of MC in rat plasma QC samples under storage conditions; assay type: in vitro ADME; conditions: for Stability (re, %) 20 °C–25 °C/24 h / Stability (re, %) −20 °C/30 days / Stability (re, %) Freeze-thaw (3 cycles): n = 3; for Stability (re, %) Freeze-thaw (3 cycles): −20 °C to ambient temperature
Protocol: MC, accurately weighted, was firstly dissolved in methanol to acquire the standard stock solutions (250 μg/mL). A set of standard working solutions (25,000.0 ng/mL, 12,500.0 ng/mL, 2,500.0 ng/mL, 1,250.0 ng/mL, 625.0 ng/mL, 250.0 ng/mL, 125.0 ng/mL, 31.25 ng/mL) were obtained by diluting the stock solutions with methanol. An aliquot of 20 µL of these standard working solutions was then spiked into 1.5 mL polythene tubes and the solvent of methanol was evaporated at room temperature. Afterwards, the calibration standards (5,000.0 ng/mL, 2,500.0 ng/mL, 500.0 ng/mL, 250.0 ng/mL, 125.0 ng/mL, 50.0 ng/mL, 25.0 ng/mL, 6.25 ng/mL) were obtained by adding blank plasma (100 µL) into the tubes and fully mixing. The preparation method of quality control samples (QCs, 25.0 ng/mL, 1,250.0 ng/mL, 4,000.0 ng/mL) was identical with that of the calibration standards. All solutions were stored at 4 °C until further use.
All method validation procedures were performed strictly in accordance with the US FDA Guidance for Industry on Bioanalytical Method Validation ([FDA, 2018]). The assessment of selectivity was performed via comparing chromatograms among blank rat plasma (six different batches) and rat plasma spiked with MC and IS. The evaluation of linearity was carried out using weighted (1/x^2) least-squares analysis of two sets of calibration standards. Three different concentrations of Quality Check: QCs (n = 6) standards were used and detected on three different days to evaluate the intra-day and inter-day precision and the accuracy. Similarly, matrix effect and extraction recovery were assessed using three different concentrations of QCs (n = 6). The matrix effect was evaluated via calculating the peak area ratio of MC in post-spiked QCs and the solvent-substituted samples with same concentration. The extraction recovery was assessed via calculating the peak area ratio of MC in pre-spiked and post-spiked QCs. The stability of MC was examined using three concentrations of QCs (n = 3) under three different storage conditions, including freeze-thaw stability (three cycles from −20 °C to ambient temperature), short-term stability (storage at 20 °C–25 °C for 24 h), and long-term stability (storage at −20 °C for 30 days).
The stability was estimated by analyzing QCs (25.0, 1,250.0, and 4,000.0 ng/mL) after storing in three different conditions: three freeze-thaw cycles (−20 °C to ambient temperature), 20 °C–25 for 24 h, and - 20 °C for 30 days. As presented in Table 5, the deviations in the stabilities of MC ranged from - 8.5% to 13.5% under the three different storage conditions.

[2] = Pharmacokinetics of MC and its metabolites in rat plasma after a single oral dose of MC (UHPLC-MS/MS); assay type: in vivo, Sprague Dawley rats; conditions: for Tmax / half-life / Cmax / AUC(0-t): male, Sprague Dawley, single oral (intragastric) 100 mg/kg MC; for Tmax / half-life: n = 6; for Cmax: n = 6, metabolites quantified with the MC calibration curve; for AUC(0-t): n = 6, non-compartmental, metabolites quantified with the MC calibration curve, read-out: AUC0–48h; for AUC0–48h fold less than that of MC / Concentration in plasma samples relative to limit of quantification: single oral 100 mg/kg MC
Protocol: Sprague Dawley rats (male, 220–250 g) were purchased from the SPF Biotechnology Co., Ltd. (Beijing, China). Animals were acclimated under controlled conditions (temperature 22 °C ± 2 °C, humidity 50%–60%, 12 h light cycle) with unlimited fodder and water access for 7 days. The animal experiments were approved by the Animal Experiment Ethics Review Committee of Jiangsu Vocational College of Medicine, Yancheng, China (LLSQ-2021-031106).
After fasting overnight, six rats were orally administered 100 mg/kg MC suspended in 0.5% carboxymethyl cellulose sodium solution (10.0 mg/mL). Blood samples (about 300 μL) were collected into heparinized polythene tubes from the suborbital vein at 0, 0.25, 0.5, 1, 2, 3, 4, 8, 12, 24, 36 and 48 h after administration. All samples were immediately centrifuged at 6,125 g for 5 min at 4 °C to acquire plasma. The plasma samples were preserved at − 80 °C until further analysis.
For the measurement of the concentrations of MC and its metabolites, three times volume of methanol, containing 20 µL IS (puerarin, 2,160.0 ng/mL), were added to 100 µL plasma samples to precipitate protein. After vortexing for 2 min, the mixtures were centrifuged at 6,125 g for 10 min at 4 °C. The obtained supernatants were transferred to fresh tubes and allowed to be dried at room temperature by a nitrogen blowing instrument. Then, the remaining residues were re-dissolved with 100 µL methanol–water (80:20, v/v). Following centrifugation at 16,173 g for 10 min, the supernatants were transferred and used for UHPLC/[…] assessment. The injection volume of each sample was 1 μL.
The UHPLC-MS system comprised of an Acquity UPLC system (Waters, Milford, United States) and Waters TQD tandem mass spectrometer equipped with an electrospray ionization (ESI) source. A Waters ACQUITY BEH C18 column (100 × 2.1 mm, 1.7 μm, Waters, Milford, United States) was used for the chromatography separation. The column temperature was set to 40 °C. The mobile phase was composed of 0.1% formic acid in water (A) and 0.1% formic acid in acetonitrile (B) with a fixed flow rate at 0.4 mL/min. A gradient elution program was used as follows: 0–1.5 min, 5%–20% B; 1.5–5 min, 20%–30% B; 5–7 min, 30%–95% B; 7–9 min, 95% B; 9–11 min, 95% B.
The MS tune parameters were set as mentioned below. The desolvation of the source temperatures was set at 500 °C. The flow rate of nebulization gas was 650 L/h. The capillary voltage was set at 2.8 kV in the positive ionization mode. The cone voltages were maintained at 35 V for all the tested ingredients. All data were obtained via the multiple reaction monitoring (MRM) ion mode. The range of m/z for the data collection was set at 100–1,500 Da. Transitions, cone voltage and a collision energy of MC and its metabolites were optimized (Table 2). The mass spectrum of MC and the chemical structures of its MS/MS fragments is shown in Figure 4, and The mass spectrum of puerarin and the chemical structures of its MS/MS fragments is shown in Figure 5. MassLynx™ software version 4.1 was used for data acquisition and TargetLynx™ (Waters, Milford, MA, United States) was applied to quantitation.
The concentrations of MC in the collected plasma samples were quantified by the established calibration curve based on peak areas of corresponding components. Owing to the lack of corresponding standards, calibration curves for the metabolites were not established. It has been reported that the concentrations of the metabolites could be quantified according to calibration curve of parent drug. This is possible due to the structural similarity of their parent nucleus ([Zhang et al., 2015]). Therefore, in this study, the concentrations of the metabolites were calculated via the calibration curve of MC. The main pharmacokinetic parameters of MC and its metabolites were calculated via a non-compartmental model with the pharmacokinetic software, DAS (ver. 2.0, Chinese Pharmacology Association, Shanghai, China). […]

[3] = set-up: method as in Hasa et al., 2013; conditions: ref Hasa et al., 2013; cited from earlier work

Structure (SMILES) | Tmax [2] | half-life [2] | Cmax [2] | AUC(0-t) [2] | AUC0–48h fold less than that of MC [2] | Concentration in plasma samples relative to limit of quantification [2] | also measured
CC[C@]12CCCN3CCc4c(n(c5ccccc45)[C@@](O)(C(=O)OC)C1)[C@@H]32 [vincamine] |  |  |  |  |  |  | Bioavailability [3]: low bioavailability
Nc1nccc(-c2cn(O)c3ccc(Br)cc23)n1 [M3] |  |  |  |  |  | lower than the limit of quantification | 
ONc1nccc(-c2cn(O)c3ccc(Br)cc23)n1 [M8] |  |  |  |  |  | lower than the limit of quantification | 
Nc1nccc(-c2cn(OS(=O)(=O)O)c3ccc(Br)cc23)n1 [M2] | 0.5 ± 0.27 h | 4.4 ± 2.7 h | 6.4 ± 2 µM | 20.9 ± 8.5 µM·h | 11.1 fold |  | 

Second part, led by results:

Tmax [2] | half-life [2] | Cmax [2] | AUC(0-t) [2] | AUC0–48h fold less than that of MC [2] | Concentration in plasma samples relative to limit of quantification [2] | Structure (SMILES) | also measured
0.75 ± 0.27 h | 17.7 ± 14.1 h | 44.8 ± 7 µM | 232 ± 85.9 µM·h |  |  | Nc1nccc(-c2c[nH]c3ccc(Br)cc23)n1 [MC, Meridianin C] | Stability (re, %) 20 °C–25 °C/24 h ([1]; rat plasma, 25.0 ng/mL): 12.5%; Stability (re, %) −20 °C/30 days ([1]; rat plasma, 25.0 ng/mL): 10.6%; Stability (re, %) Freeze-thaw (3 cycles) ([1]; rat plasma, 25.0 ng/mL): 13.5%; Stability (re, %) 20 °C–25 °C/24 h ([1]; rat plasma, 1,250.0 ng/mL): 7.9%; Stability (re, %) −20 °C/30 days ([1]; rat plasma, 1,250.0 ng/mL): 5.2%; Stability (re, %) Freeze-thaw (3 cycles) ([1]; rat plasma, 1,250.0 ng/mL): 12.6%; Stability (re, %) 20 °C–25 °C/24 h ([1]; rat plasma, 4,000.0 ng/mL): −6.8%; Stability (re, %) −20 °C/30 days ([1]; rat plasma, 4,000.0 ng/mL): −8.5%; Stability (re, %) Freeze-thaw (3 cycles) ([1]; rat plasma, 4,000.0 ng/mL): 9.3%; Stability in rat plasma (in words) ([1]; three freeze-thaw cycles, 20 °C–25 °C for 24 h, −20 °C for 30 days): stable
0.88 ± 0.63 h | 3.4 ± 2.2 h | 1.6 ± 0.6 µM | 4 ± 1.1 µM·h | 58.7 fold |  | O=S(=O)(O)ONc1nccc(-c2c[nH]c3ccc(Br)cc23)n1 [M11] | 
